Laboratory results: patent US11414416B1, “Compounds and uses thereof” (Foghorn Therapeutics Inc., priority 2019, dated 2022)

Assays:
[1] = molecular target: Nanoluciferase-BRD9 fusion protein (Homo sapiens (Human), UniProt Q9H8M2); assay: SYO1 BRD9 NanoLuc degradation assay; format: cell-based; conditions: Table 5A, SYO-1 cells expressing 3×FLAG-NLuc-BRD9, 6 hours; for DC50: read-out: SYO1 BRD9-NanoLuc degradation IC50
How it was run: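 Degradation was read as loss of nanoluciferase signal (Nano-Glo) after 6 h compound exposure in a stable SYO-1 line carrying 3×FLAG-NLuc-BRD9 (8000 cells/well). Normalised between DMSO (high) and a 1 μM known BRD9 degrader (low).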

BRD9 bromodomain = BRD9 bromodomain (Homo sapiens (Human), UniProt Q9H8M2); assay: BRD9 bromodomain TR-FRET competition binding assay; conditions: Table 4; competition with biotinylated ligand, 3 nM Flag-BRD9, 90 minutes
How it was run: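 TEV-cleaved Flag-BRD9 (P133-K239, 3 nM) competed against 3.75 nM biotinylated ligand, with 7.5 nM APC-streptavidin and 0.2 nM Eu-W1024 anti-FLAG, in HEPES pH 7.4, NaCl, TCEP, Tween-20, BSA. Compounds were serially diluted 3-fold; after 90 min at room temperature the 665/615 nm emission ratio was read.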

BRD9 bromodomain, sequence (Q9H8M2 133-239): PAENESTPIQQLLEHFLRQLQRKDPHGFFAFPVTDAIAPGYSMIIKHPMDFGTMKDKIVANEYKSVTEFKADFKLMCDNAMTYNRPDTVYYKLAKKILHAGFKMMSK
Nanoluciferase-BRD9 fusion protein, sequence (Q9H8M2 whole entry, the tested form may be a part): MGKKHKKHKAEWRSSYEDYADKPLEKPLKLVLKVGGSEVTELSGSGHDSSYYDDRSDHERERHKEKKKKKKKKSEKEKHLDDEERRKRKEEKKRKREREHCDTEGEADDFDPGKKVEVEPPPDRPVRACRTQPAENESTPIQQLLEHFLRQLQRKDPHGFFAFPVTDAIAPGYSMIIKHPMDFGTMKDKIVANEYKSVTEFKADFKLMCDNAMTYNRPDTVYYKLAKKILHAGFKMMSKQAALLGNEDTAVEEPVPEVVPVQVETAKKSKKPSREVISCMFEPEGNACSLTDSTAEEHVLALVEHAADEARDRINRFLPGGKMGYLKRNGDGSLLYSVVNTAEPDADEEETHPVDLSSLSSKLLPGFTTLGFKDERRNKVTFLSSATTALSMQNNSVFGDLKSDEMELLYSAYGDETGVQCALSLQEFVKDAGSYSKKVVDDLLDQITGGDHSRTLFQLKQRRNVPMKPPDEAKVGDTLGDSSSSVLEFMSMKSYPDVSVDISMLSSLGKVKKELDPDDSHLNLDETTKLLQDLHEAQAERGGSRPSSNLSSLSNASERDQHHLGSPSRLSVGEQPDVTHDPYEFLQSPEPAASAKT

Row | IC50 [1] [nM] | IC50 (BRD9 bromodomain) [nM] | DC50 [1] [nM] | Structure (SMILES)
1 | 10 to 100 | 10 to 100 |  | COc1cc(-c2cn(C)c(=O)c3cnccc23)cc(OC)c1CN(C)C1CCC12CCN(C(=O)CCOCCOc1cccc3c1C(=O)N(C1CCC(=O)NC1=O)C3=O)CC2 (centres unmarked) [Compound D110]
2 | < 10 | < 10 |  | COc1cc(-c2cn(C)c(=O)c3cnccc23)cc(OC)c1CN(C)CC1CC2(CCN(C(=O)CCOCCOc3ccc4c(c3)C(=O)N(C3CCC(=O)NC3=O)C4=O)CC2)O1 (centres unmarked) [Compound D167]
3 |  | < 10 | 10 to 100 | COc1cc(-c2cn(C)c(=O)c3cnccc23)cc(OC)c1CN1CCC2(CC1)CN(C(=O)COc1cccc3c1C(=O)N(C1CCC(=O)NC1=O)C3=O)CCO2 (centres unmarked) [Compound D41, 4-[2-(9-[[2,6-dimethoxy-4-(2-methyl-1-oxo-2,7-naphthyridin-4-yl)phenyl]methyl]-1-oxa-4,9-diazaspiro[5.5]undecan-4-yl)-2-oxoethoxy]-2-(2,6-dioxopiperidin-3-yl)isoindole-1,3-dione formic acid]
4 | < 10 | < 10 |  | COc1cc(-c2cn(C)c(=O)c3cnccc23)cc(OC)c1CN1CCC(OC2CCN(C(=O)CCOCCOc3ccc4c(c3)C(=O)N(C3CCC(=O)NC3=O)C4=O)CC2)CC1 (centres unmarked) [Compound D131]
5 | < 10 | 10 to 100 |  | COc1cc(-c2cn(C)c(=O)c3cnccc23)cc(OC)c1CN(C)C1CCC12CCN(C(=O)CCOCCOc1ccc3c(c1)C(=O)N(C1CCC(=O)NC1=O)C3=O)CC2 (centres unmarked) [Compound D173]
6 | < 10 | < 10 |  | COc1cc(-c2cn(C)c(=O)c3cnccc23)cc(OC)c1CN1CC(C(=O)N(C)CCCCCNc2cccc3c2C(=O)N(C2CCC(=O)NC2=O)C3=O)C1 (centres unmarked) [Compound D15, 1-[[2,6-dimethoxy-4-(2-methyl-1-oxo-1,2-dihydro-2,7-naphthyridin-4-yl)phenyl]methyl]-N-(5-[[2-(2,6-dioxopiperidin-3-yl)-1,3-dioxo-2,3-dihydro-1H-isoindol-4-yl]amino]pentyl)-N-methylazetidine-3-carboxamide formic acid]
7 |  | < 10 | 10 to 100 | COc1cc(-c2cn(C)c(=O)c3cnccc23)cc(OC)c1CN(C)CC1CC2CN(C(=O)CCOCCOc3cccc4c3C(=O)N(C3CCC(=O)NC3=O)C4=O)C[C@@H]2C1 (some centres unmarked) [Compound D166]
8 | < 10 | 10 to 100 |  | COc1cc(-c2cn(C)c(=O)c3cnccc23)cc(OC)c1CN1CC[C@@H]1C(=O)NCCCCCCCCNc1cccc2c1C(=O)N(C1CCC(=O)NC1=O)C2=O (some centres unmarked) [Compound D10]
9 | < 10 | < 10 |  | COc1cc(-c2cn(C)c(=O)c3cnccc23)cc(OC)c1CN1CCC(OC2CCN(C(=O)CCOCCOc3ccc4c(c3)C(=O)N(C3CCC(=O)NC3=O)C4=O)C2)CC1 (centres unmarked) [Compound D130]
10 | < 10 | < 10 |  | COc1cc(-c2cn(C)c(=O)c3cnccc23)cc(OC)c1CN1CC(CC(=O)NCCCCCCCCNc2cccc3c2C(=O)N(C2CCC(=O)NC2=O)C3=O)C1 (centres unmarked) [Compound D9, 2-(1-[[2,6-dimethoxy-4-(2-methyl-1-oxo-1,2-dihydro-2,7-naphthyridin-4-yl)phenyl]methyl]azetidin-3-yl)-N-(8-[[2-(2,6-dioxopiperidin-3-yl)-1,3-dioxo-2,3-dihydro-1H-isoindol-4-yl]amino]octyl)acetamide formic acid]
11 | < 10 | 10 to 100 |  | COc1cc(-c2cn(C)c(=O)c3cnccc23)cc(OC)c1CN(C)C1CCC2CN(C(=O)CCOCCOc3ccc4c(c3)C(=O)N(C3CCC(=O)NC3=O)C4=O)CC21 (centres unmarked) [Compound D170]
12 |  | < 10 | 10 to 100 | COc1cc(-c2cn(C)c(=O)c3cnccc23)cc(OC)c1CN1CCC(OC2CCN(C(=O)CCOCCOc3cccc4c3C(=O)N(C3CCC(=O)NC3=O)C4=O)CC2)CC1 (centres unmarked) [Compound D97]
13 | < 10 | < 10 |  | COc1cc(-c2cn(C)c(=O)c3cnccc23)cc(OC)c1CN1CCC2(CCN(C(=O)CCOCCOc3cccc4c3C(=O)N(C3CCC(=O)NC3=O)C4=O)CC2)C1 (centres unmarked) [Compound D89]
14 |  | < 10 | 10 to 100 | COc1cc(-c2cn(C)c(=O)c3cnccc23)cc(OC)c1CN1CC2(CC(NC(=O)CCOCCOc3cccc4c3C(=O)N(C3CCC(=O)NC3=O)C4=O)C2)C1 (centres unmarked) [Compound D93]
15 | 100 to 1000 | 10 to 100 |  | COc1cc(-c2cn(C)c(=O)c3cnccc23)cc(OC)c1CN1CC2(CCN(C(=O)CCOCCOc3cccc4c3C(=O)N(C3CCC(=O)NC3=O)C4=O)CC2)C1 (centres unmarked) [Compound D85]
16 | 10 to 100 | 10 to 100 |  | COc1cc(-c2cn(C)c(=O)c3cnccc23)cc(OC)c1CN(C)CC1CC2(CCN(C(=O)CCOCCOc3ccc4c(c3)C(=O)N(C3CCC(=O)NC3=O)C4=O)CC2)C1 (centres unmarked) [Compound D175]
17 | 100 to 1000 | 10 to 100 |  | COc1cc(-c2cn(C)c(=O)c3cnccc23)cc(OC)c1CN(C)CC12CC(C(=O)NCCOCCOCCNc3cccc4c3C(=O)N(C3CCC(=O)NC3=O)C4=O)(C1)C2 (centres unmarked) [Compound D55, 3-[([[2,6-dimethoxy-4-(2-methyl-1-oxo-2,7-naphthyridin-4-yl)phenyl]methyl](methyl)amino)methyl]-N-[2-[2-(2-[[2-(2,6-dioxopiperidin-3-yl)-1,3-dioxoisoindol-4-yl]amino]ethoxy)ethoxy]ethyl]bicyclo[1.1.1]pentane-1-carboxamide]
18 | < 10 | 10 to 100 |  | COc1cc(-c2cn(C)c(=O)c3cnccc23)cc(OC)c1CN1CC[C@H]1C(=O)NCCCCCCCCNc1cccc2c1C(=O)N(C1CCC(=O)NC1=O)C2=O (stereo partly drawn) [Compound D11, (2S)-1-[[2,6-dimethoxy-4-(2-methyl-1-oxo-2,7-naphthyridin-4-yl)phenyl]methyl]-N-(8-[[2-(2,6-dioxopiperidin-3-yl)-1,3-dioxoisoindol-4-yl]amino]octyl)azetidine-2-carboxamide]
19 |  | < 10 | 10 to 100 | COc1cc(-c2cn(C)c(=O)c3cnccc23)cc(OC)c1CN1CCCC(OCc2cn(CCCOc3ccc4c(c3)C(=O)N(C3CCC(=O)NC3=O)C4=O)nn2)C1 (centres unmarked) [Compound D151]
20 |  | < 10 | 10 to 100 | COc1cc(-c2cn(C)c(=O)c3cnccc23)cc(OC)c1CN1CCC(OC2CCN(C(=O)CCOCCOc3cccc4c3C(=O)N(C3CCC(=O)NC3=O)C4=O)C2)CC1 (centres unmarked) [Compound D114]
21 | < 10 | < 10 |  | COc1cc(-c2cn(C)c(=O)c3cnccc23)cc(OC)c1CN(C)C12CC(C(=O)NCCOCCOCCNc3cccc4c3C(=O)N(C3CCC(=O)NC3=O)C4=O)(C1)C2 (centres unmarked) [Compound D58, 3-([[2,6-dimethoxy-4-(2-methyl-1-oxo-2,7-naphthyridin-4-yl)phenyl]methyl] (methyl)amino)-N-[2-[2-(2-[[2-(2,6-dioxopiperidin-3-yl)-1,3-dioxoisoindol-4-yl]amino]ethoxy)ethoxy]ethyl]bicyclo[1.1.1]pentane-1-carboxamide]
22 | < 10 | 10 to 100 |  | COc1cc(-c2cn(C)c(=O)c3cnccc23)cc(OC)c1CN1CC(C(=O)NCCCCCCCCNc2cccc3c2C(=O)N(C2CCC(=O)NC2=O)C3=O)C1 (centres unmarked) [Compound D1, 1-[[2,6-dimethoxy-4-(2-methyl-1-oxo-1,2-dihydro-2,7-naphthyridin-4-yl)phenyl]methyl]-N-(8-[[2-(2,6-dioxopiperidin-3-yl)-1,3-dioxo-2,3-dihydro-1H-isoindol-4-yl]amino]octyl)azetidine-3-carboxamide formic acid]
23 |  | < 10 | 10 to 100 | COc1cc(-c2cn(C)c(=O)c3cnccc23)cc(OC)c1CN(C)CC1CC12CCN(C(=O)CCOCCOc1ccc3c(c1)C(=O)N(C1CCC(=O)NC1=O)C3=O)CC2 (centres unmarked) [Compound D172]
24 |  | < 10 | 100 to 1000 | COc1cc(-c2cn(C)c(=O)c3cnccc23)cc(OC)c1CN1CC2(CC(NC(=O)CCOCCOc3ccc4c(c3)C(=O)N(C3CCC(=O)NC3=O)C4=O)C2)C1 (centres unmarked) [Compound D101]
25 | 10 to 100 | 10 to 100 |  | COc1cc(-c2cn(C)c(=O)c3cnccc23)cc(OC)c1CN(C)C1CC2CC1CN2C(=O)CCOCCOc1cccc2c1C(=O)N(C1CCC(=O)NC1=O)C2=O (centres unmarked) [Compound D162]

Row | Structure (SMILES) | IC50 [1] [nM] | IC50 (BRD9 bromodomain) [nM] | DC50 [1] [nM]
26 | COc1cc(-c2cn(C)c(=O)c3cnccc23)cc(OC)c1CNCCOCC(=O)N1CC(COc2ccc3c(c2)C(=O)N(C2CCC(=O)NC2=O)C3=O)C1 (centres unmarked) [Compound D74, 5-[(1-[2-[2-([[2,6-dimethoxy-4-(2-methyl-1-oxo-2,7-naphthyridin-4-yl)phenyl]methyl]amino)ethoxy]acetyl]azetidin-3-yl)methoxy]-2-(2,6-dioxopiperidin-3-yl)isoindole-1,3-dione formic acid] |  | < 10 | 100 to 1000
27 | COc1cc(-c2cn(C)c(=O)c3cnccc23)cc(OC)c1CN1CC2(C1)CN(C(=O)CCCOc1cccc3c1C(=O)N(C1CCC(=O)NC1=O)C3=O)C2 (centres unmarked) [Compound D32, 4-(4-(6-(2,6-dimethoxy-4-(2-methyl-1-oxo-1,2-dihydro-2,7-naphthyridin-4-yl)benzyl)-2,6-diazaspiro[3.3]heptan-2-yl)-4-oxobutoxy)-2-(2,6-dioxopiperidin-3-yl)isoindoline-1,3-dione] |  | < 10 | 10 to 100
28 | COc1cc(-c2cn(C)c(=O)c3cnccc23)cc(OC)c1CN1CC(C(=O)NCCCCCCCCNc2cccc3c2C(=O)N(C2CCC(=O)N(C)C2=O)C3=O)C1 (centres unmarked) [Compound D8, 1-[[2,6-dimethoxy-4-(2-methyl-1-oxo-1,2-dihydro-2,7-naphthyridin-4-yl)phenyl]methyl]-N-(8-[[2-(1-methyl-2,6-dioxopiperidin-3-yl)-1,3-dioxo-2,3-dihydro-1H-isoindol-4-yl]amino]octyl)azetidine-3-carboxamide formic acid] |  | < 10 | > 1000
